# In ChEMBL document CHEMBL1201862, “PubChem BioAssay data set” (2004):
#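 Protocol summary: plate cells (96-well), add compound at 5 concentrations, incubate 48 h, interpolate endpoints linearly. GI50 marks 50% less growth.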 Activity calls are given as the source filed them. Rule as the data show it: active = GI50 up to about 1.1 µM and inactive = higher.
# Tests used:
# Experiment in all cases: DTP human tumour cell line panel, 48 h
# [1] = tested on: OVCAR-8
# [2] = tested on: KM-20L2
# [3] = tested on: NCI-H23
# [4] = tested on: NCI-H460
# [5] = tested on: HOP-62
# [6] = tested on: SNB-78
# [7] = tested on: IGROV-1
# [8] = tested on: SN12C
# [9] = tested on: OVCAR-5
# [10] = tested on: MOLT-4
# [11] = tested on: SK-OV-3
# [12] = tested on: HCT-116
# [13] = tested on: A549
# [14] = tested on: DMS-114
# [15] = tested on: TK-10
# [16] = tested on: CCRF-CEM
# [17] = tested on: LXFL 529
# [18] = tested on: DLD-1
# [19] = tested on: OVCAR-3
# [20] = tested on: EKVX
# [21] = tested on: SNB-19
# [22] = tested on: K562
# [23] = tested on: DMS-273
# [24] = tested on: RXF 631
# [25] = tested on: KM12
# [26] = tested on: RPMI-8226
# [27] = tested on: LOX IMVI
# [28] = tested on: Malme-3M
# [29] = tested on: COLO 205
# [30] = tested on: CAKI-1
# [31] = tested on: SK-MEL-5
# [32] = tested on: ACHN
# [33] = tested on: HCC 2998
# [34] = tested on: U-251
# [35] = tested on: SK-MEL-28
# [36] = tested on: A498
# [37] = tested on: 786-0
# [38] = tested on: SF-295
# [39] = tested on: HT-29
# [40] = tested on: SNB-75
# [41] = tested on: HOP-92
# [42] = tested on: SK-MEL-2
# [43] = tested on: SF-539
# [44] = tested on: RXF 393
# [45] = tested on: UO-31
# [46] = tested on: XF498
# [47] = tested on: M19-MEL
# [48] = tested on: NCI-H226
# [49] = tested on: OVCAR-4
# [50] = tested on: HCT-15
# [51] = tested on: UACC-62
# [52] = tested on: NCI-H522
# [53] = tested on: UACC-257
# [54] = tested on: SF-268
# [55] = tested on: M14
# [56] = tested on: SW-620
# [57] = tested on: HOP-18
# [58] = tested on: HL-60
smiles,measurement,setting,value
CC(=O)NC(CCCN(Cc1ccccc1)C(=O)N(C)N=O)C(=O)NCc1ccccc1 (stereo not drawn),GI50,[1],> 100 µM (inactive)
same,GI50,[2],> 100 µM (inactive)
same,GI50,[3],> 100 µM (inactive)
same,GI50,[4],> 100 µM (inactive)
same,GI50,[5],> 100 µM (inactive)
same,GI50,[6],> 100 µM (inactive)
same,GI50,[7],> 100 µM (inactive)
same,GI50,[8],> 100 µM (inactive)
same,GI50,[9],> 100 µM (inactive)
same,GI50,[10],57.1 µM (inactive)
same,GI50,[11],> 100 µM (inactive)
same,GI50,[12],> 100 µM (inactive)
same,GI50,[13],> 100 µM (inactive)
same,GI50,[14],> 100 µM (inactive)
same,GI50,[15],> 100 µM (inactive)
same,GI50,[16],> 100 µM (inactive)
same,GI50,[17],> 100 µM (inactive)
same,GI50,[18],> 100 µM (inactive)
same,GI50,[19],> 100 µM (inactive)
same,GI50,[20],> 100 µM (inactive)
same,GI50,[21],> 100 µM (inactive)
same,GI50,[22],> 100 µM (inactive)
same,GI50,[23],> 100 µM (inactive)
same,GI50,[24],> 100 µM (inactive)
same,GI50,[25],> 100 µM (inactive)
same,GI50,[26],> 100 µM (inactive)
same,GI50,[27],> 100 µM (inactive)
same,GI50,[28],> 100 µM (inactive)
same,GI50,[29],> 100 µM (inactive)
same,GI50,[30],> 100 µM (inactive)
same,GI50,[31],> 100 µM (inactive)
same,GI50,[32],> 100 µM (inactive)
same,GI50,[33],> 100 µM (inactive)
same,GI50,[34],> 100 µM (inactive)
same,GI50,[35],> 100 µM (inactive)
same,GI50,[36],> 100 µM (inactive)
same,GI50,[37],> 100 µM (inactive)
same,GI50,[38],> 100 µM (inactive)
same,GI50,[39],> 100 µM (inactive)
same,GI50,[40],27.4 µM (inactive)
same,GI50,[41],> 100 µM (inactive)
same,GI50,[42],> 100 µM (inactive)
same,GI50,[43],> 100 µM (inactive)
same,GI50,[44],> 100 µM (inactive)
same,GI50,[45],> 100 µM (inactive)
same,GI50,[46],> 100 µM (inactive)
same,GI50,[47],> 100 µM (inactive)
same,GI50,[48],> 100 µM (inactive)
same,GI50,[49],> 100 µM (inactive)
same,GI50,[50],> 100 µM
same,GI50,[51],> 100 µM (inactive)
same,GI50,[52],37.1 µM (inactive)
same,GI50,[53],> 100 µM (inactive)
same,GI50,[54],95.3 µM (inactive)
same,GI50,[55],> 100 µM (inactive)
same,GI50,[56],> 100 µM (inactive)
Cc1cccc(C(C)(C)C)c1NC(=O)CC1Sc2ccccc2NC1=O (stereo not drawn),GI50,[1],94.2 µM (inactive)
same,GI50,[2],> 100 µM (inactive)
same,GI50,[3],46.6 µM (inactive)
same,GI50,[4],34 µM (inactive)
same,GI50,[5],> 100 µM (inactive)
same,GI50,[7],> 100 µM (inactive)
same,GI50,[8],> 100 µM (inactive)
same,GI50,[9],> 100 µM (inactive)
same,GI50,[10],43.3 µM (inactive)
same,GI50,[11],> 100 µM (inactive)
same,GI50,[12],22.4 µM (inactive)
same,GI50,[13],> 100 µM (inactive)
same,GI50,[14],24.8 µM (inactive)
same,GI50,[15],41.7 µM (inactive)
same,GI50,[16],55.7 µM (inactive)
same,GI50,[17],52.6 µM (inactive)
same,GI50,[18],57.4 µM (inactive)
same,GI50,[19],55.7 µM (inactive)
same,GI50,[20],> 100 µM (inactive)
same,GI50,[21],> 100 µM (inactive)
same,GI50,[22],33 µM (inactive)
same,GI50,[23],32.9 µM (inactive)
same,GI50,[24],36.7 µM (inactive)
same,GI50,[25],95.1 µM (inactive)
same,GI50,[26],19 µM (inactive)
same,GI50,[28],> 100 µM (inactive)
same,GI50,[29],24 µM (inactive)
same,GI50,[30],87.3 µM (inactive)
same,GI50,[31],> 100 µM (inactive)
same,GI50,[32],57.5 µM (inactive)
same,GI50,[33],> 100 µM (inactive)
same,GI50,[34],25.6 µM (inactive)
same,GI50,[35],> 100 µM (inactive)
same,GI50,[36],> 100 µM (inactive)
same,GI50,[37],46 µM (inactive)
same,GI50,[38],> 100 µM (inactive)
same,GI50,[39],43 µM (inactive)
same,GI50,[40],> 100 µM (inactive)
same,GI50,[41],3.8 µM (inactive)
same,GI50,[43],> 100 µM (inactive)
same,GI50,[45],60.5 µM (inactive)
same,GI50,[47],66.8 µM (inactive)
same,GI50,[48],94.2 µM (inactive)
same,GI50,[49],> 100 µM (inactive)
same,GI50,[51],68.7 µM (inactive)
same,GI50,[52],> 100 µM (inactive)
same,GI50,[57],57.9 µM (inactive)
same,GI50,[53],36.2 µM (inactive)
same,GI50,[54],87.9 µM (inactive)
same,GI50,[55],> 100 µM (inactive)
same,GI50,[56],17.3 µM (inactive)
same,GI50,[58],46.1 µM (inactive)
